Data as given in ChEMBL document CHEMBL1149764, “Synthesis, structure and biological activity of pseudopeptidic macrolides based on an amino alcohol” (Eur J Med Chem, 2008).
In brackets after ≈: the same amount, converted by molar mass.

Columns and labels:
[1] = Toxicity against human erythrocytes assessed as hemolytic activity at 1000 ug/ml; type: cell-based, Erythrocyte; conditions: read-out: Activity
[2] = Antifungal activity against […] nigricans SYM 2417 after 48 hrs standard broth microdilution method; type: functional
[3] = system: Candida albicans; assay: Antifungal activity against Candida albicans ATCC 10231 after 48 hrs standard broth microdilution method; type: functional; conditions: ATCC 10231, 48 h
[4] = Toxicity against human erythrocytes assessed as hemolytic activity at 250 ug/ml; type: cell-based, Erythrocyte; conditions: read-out: Activity
[5] = system: Bacillus subtilis; assay: Antibacterial activity against Bacillus subtilis ATCC 6633 after 24 hrs by twofold dilution method; type: functional; conditions: ATCC 6633, 24 h
[6] = system: Pseudomonas aeruginosa; assay: Antibacterial activity against Pseudomonas aeruginosa ATCC 27853 after 24 hrs by twofold dilution method; type: functional; conditions: ATCC 27853, 24 h
[7] = system: Aspergillus flavus; assay: Antifungal activity against Aspergillus flavus SYM 223 after 48 hrs standard broth microdilution method; type: functional
[8] = system: Aspergillus niger; assay: Antifungal activity against Aspergillus niger ATCC 16404 after 48 hrs standard broth microdilution method; type: functional; conditions: ATCC 16404, 48 h
[9] = system: Escherichia coli; assay: Antibacterial activity against Escherichia coli ATCC 25922 after 24 hrs by twofold dilution method; type: functional; conditions: ATCC 25922, 24 h
[10] = system: Cryptococcus neoformans; assay: Antifungal activity against Cryptococcus neoformans SYM 523 after 48 hrs standard broth microdilution method; type: functional
[11] = Toxicity against human erythrocytes assessed as hemolytic activity at 2000 ug/ml; type: cell-based, Erythrocyte; conditions: read-out: Activity
[12] = system: Saccharomyces cerevisiae; assay: Antifungal activity against Saccharomyces cerevisiae SYM 3513 after 48 hrs standard broth microdilution method; type: functional
[13] = Toxicity against human erythrocytes assessed as hemolytic activity at 4000 ug/ml; type: cell-based, Erythrocyte; conditions: read-out: Activity
[14] = system: Staphylococcus aureus; assay: Antibacterial activity against Staphylococcus aureus ATCC 25923 after 24 hrs by twofold dilution method; type: functional; conditions: ATCC 25923, 24 h
[15] = Antifungal activity against […] glutinis SYM 2209 after 48 hrs standard broth microdilution method; type: functional
[16] = Toxicity against human erythrocytes assessed as hemolytic activity at 500 ug/ml; type: cell-based, Erythrocyte; conditions: read-out: Activity

SMILES | hemolysis at 1000 ug/ml [1] [%] | MIC [2] [µg/mL] | MIC [3] [µg/mL] | hemolysis at 250 ug/ml [4] [%] | MIC [5] [µg/mL] | MIC [6] [µg/mL] | MIC [7] [µg/mL] | MIC [8] [µg/mL] | MIC [9] [µg/mL] | MIC [10] [µg/mL] | hemolysis at 2000 ug/ml [11] [%] | MIC [12] [µg/mL] | hemolysis at 4000 ug/ml [13] [%] | MIC [14] [µg/mL] | MIC [15] [µg/mL] | hemolysis at 500 ug/ml [16] [%]
O=C1N[C@@H]2c3ccccc3C[C@@H]2OC(=O)c2cccc(n2)C(=O)O[C@H]2Cc3ccccc3[C@H]2NC(=O)c2cccc1n2 | 0 | 8 (≈ 14.3 µM) | 1 (≈ 1.78 µM) | 0 | 8 (≈ 14.3 µM) | > 64 | > 64 | 4 (≈ 7.14 µM) | 32 (≈ 57.1 µM) | 16 (≈ 28.5 µM) | 1 | 64 (≈ 114 µM) | 2 | 4 (≈ 7.14 µM) | 16 (≈ 28.5 µM) | 0
O=C1O[C@H]2Cc3ccccc3[C@H]2NC(=O)c2cccc(n2)C(=O)N[C@@H]2c3ccccc3C[C@@H]2OC(=O)C2=CC=C1S2 | 4 | 1 (≈ 1.77 µM) | 1 (≈ 1.77 µM) | 0.5 | > 64 | > 64 | 1 (≈ 1.77 µM) | 4 (≈ 7.07 µM) | > 64 | 4 (≈ 7.07 µM) | 6 | 8 (≈ 14.1 µM) | 14 | 8 (≈ 14.1 µM) | 4 (≈ 7.07 µM) | 1
O=C1O[C@H]2Cc3ccccc3[C@H]2NC(=O)c2cccc(c2)C(=O)N[C@@H]2c3ccccc3C[C@@H]2OC(=O)C2=CC=C1S2 | 1 | 1 (≈ 1.77 µM) | 1 (≈ 1.77 µM) | 0 | > 64 | > 64 | 8 (≈ 14.2 µM) | 32 (≈ 56.7 µM) | 16 (≈ 28.3 µM) | 4 (≈ 7.08 µM) | 4 | 16 (≈ 28.3 µM) | 9 | 16 (≈ 28.3 µM) | 4 (≈ 7.08 µM) | 0
O=C1N[C@@H]2c3ccccc3C[C@@H]2OC(=O)c2cccc(n2)C(=O)O[C@H]2Cc3ccccc3[C@H]2NC(=O)c2cccc1c2 | 2 | 4 (≈ 7.15 µM) | 4 (≈ 7.15 µM) | 0 | > 64 | > 64 | 2 (≈ 3.57 µM) | 8 (≈ 14.3 µM) | 32 (≈ 57.2 µM) | 16 (≈ 28.6 µM) | 4 | 32 (≈ 57.2 µM) | 7 | 16 (≈ 28.6 µM) | 8 (≈ 14.3 µM) | 0
OC(Cn1cncn1)(Cn1cncn1)c1ccc(F)cc1F [FLUCONAZOLE] |  |  | 16 (≈ 52.2 µM) |  |  |  | 64 (≈ 209 µM) | 64 (≈ 209 µM) |  | 32 (≈ 104 µM) |  | 32 (≈ 104 µM) |  |  | > 64 | 
O=C1O[C@H]2Cc3ccccc3[C@H]2NC(=O)c2cccc(n2)C(=O)N[C@@H]2c3ccccc3C[C@@H]2OC(=O)c2cccc1c2 | 3 | 4 (≈ 7.15 µM) | 4 (≈ 7.15 µM) | 0 | 4 (≈ 7.15 µM) | 32 (≈ 57.2 µM) | 8 (≈ 14.3 µM) | 4 (≈ 7.15 µM) | > 64 | 8 (≈ 14.3 µM) | 6 | 16 (≈ 28.6 µM) | 9 | 32 (≈ 57.2 µM) | 8 (≈ 14.3 µM) | 0
O=C1N[C@@H]2c3ccccc3C[C@@H]2OC(=O)c2cccc(c2)C(=O)O[C@H]2Cc3ccccc3[C@H]2NC(=O)c2cccc1c2 | 0 | 1 (≈ 1.79 µM) | 1 (≈ 1.79 µM) | 0 | 8 (≈ 14.3 µM) | > 64 | 2 (≈ 3.58 µM) | 8 (≈ 14.3 µM) | 16 (≈ 28.6 µM) | 4 (≈ 7.16 µM) | 0.5 | 32 (≈ 57.3 µM) | 2 | 4 (≈ 7.16 µM) | 4 (≈ 7.16 µM) | 0
O=C(N[C@H](CO)[C@H](O)c1ccc([N+](=O)[O-])cc1)C(Cl)Cl [CHLORAMPHENICOL] |  |  |  |  | 8 (≈ 24.8 µM) | 32 (≈ 99 µM) |  |  | 8 (≈ 24.8 µM) |  |  |  |  | 4 (≈ 12.4 µM) |  | 
C[C@@H]1[C@H](O)[C@@H](C)/C=C/C=C/C=C/C=C/C=C/C=C/C=C/[C@H](O[C@@H]2O[C@H](C)[C@@H](O)[C@H](N)[C@@H]2O)C[C@@H]2O[C@](O)(C[C@@H](O)C[C@@H](O)[C@H](O)CC[C@@H](O)C[C@@H](O)CC(=O)O[C@H]1C)C[C@H](O)[C@H]2C(=O)O [AMPHOTERICIN B] |  |  | 1 (≈ 1.08 µM) |  |  |  | 0.5 (≈ 0.541 µM) | 1 (≈ 1.08 µM) |  |  |  | 0.5 (≈ 0.541 µM) |  |  | 2 (≈ 2.16 µM) | 
